Assay results as given in PMC4648260 (Chembiochem : a European journal of chemical biology, 2015).

Key:
RhlR [1] = target: T1, RhlR (Pseudomonas aeruginosa, UniProt P54292); format: cell-based; details: for RhlR-agonistic selectivity over LasR and QscR: criterion: at least 2.5-fold more active in RhlR agonism assays than in LasR and QscR agonism assays at 100 μM; for EC50: read-out: EC50 (RhlR agonism), E. coli reporter, dose-response 100 nM – 1 mM
RhlR [2] = target: T1, RhlR; assay: RhlR agonism, P. aeruginosa GFP reporter strain PAO-JP2/prhlI-LVAgfp; format: cell-based; details: compound at 100 μM in the presence of 100 nM OdDHL, 900 μM BHL set to 100% activation, error ±10%, selected data reproduced from ref. [23]
RhlR [3] = target: T1, RhlR; format: cell-based; details: E. coli reporter; for Inhibition (%) / % RhlR inhibition: compound at 100 μM in the presence of 10 μM BHL, untreated culture set to 100%, error ±10%, selected data reproduced from ref. [23]
LasR = LasR (Pseudomonas aeruginosa, UniProt P25084); assay: LasR antagonism; format: cell-based; details: compound at 100 μM against 2 nM OdDHL; untreated culture set to 100%; negative values indicate receptor agonism; error ±10%
LasR, sequence (P25084 whole entry): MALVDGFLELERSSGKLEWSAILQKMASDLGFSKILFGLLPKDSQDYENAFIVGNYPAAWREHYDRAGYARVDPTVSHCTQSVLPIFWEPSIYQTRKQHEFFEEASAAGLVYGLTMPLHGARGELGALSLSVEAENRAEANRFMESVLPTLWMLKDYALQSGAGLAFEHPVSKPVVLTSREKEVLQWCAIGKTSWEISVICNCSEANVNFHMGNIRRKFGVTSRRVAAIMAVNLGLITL

RhlR [4] = target: T1, RhlR; assay: RhlR antagonism; format: cell-based
QscR = QscR (Pseudomonas aeruginosa, UniProt G3XD77); details: compound at 100 μM against 15 nM OdDHL; untreated culture set to 100%; error ±10%

T1 sequence (P54292 whole entry): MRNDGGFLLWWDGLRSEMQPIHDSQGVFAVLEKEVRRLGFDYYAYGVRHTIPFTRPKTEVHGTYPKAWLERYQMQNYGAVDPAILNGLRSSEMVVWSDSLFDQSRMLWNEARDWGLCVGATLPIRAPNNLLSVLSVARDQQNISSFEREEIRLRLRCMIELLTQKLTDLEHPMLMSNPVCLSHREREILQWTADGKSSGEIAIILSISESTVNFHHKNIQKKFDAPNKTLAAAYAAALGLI

| Structure (SMILES) | RhlR-agonistic selectivity over LasR and QscR (RhlR [1]) | % RhlR activation (RhlR [2]) [%] | Inhibition (%) / % RhlR inhibition (RhlR [3]) [%] | % LasR inhibition (LasR) [%] | % QscR inhibition (QscR) [%] | EC50 (RhlR [1]) [µM] | further results |
| --- | --- | --- | --- | --- | --- | --- | --- |
| O=C(Cc1cccc(F)c1)NC1CCOC1=O (stereo not drawn) [Compound C3] | displayed selectivity | 28 | – | – | – | – | – |
| O=C(COc1ccc(I)cc1)N[C@H]1CCOC1=O [Compound E22] | – | – | 74 | −9 | 18 | – | fold reduction in potency, P. aeruginosa vs E. coli (RhlR [4]; IC50 67.2 μM in P. aeruginosa vs 17.3 μM in E. coli): ~ 4 fold; % RhlR inhibition (RhlR [4]; P. aeruginosa reporter, compound at 100 μM against 30 μM BHL in the presence of 100 nM OdDHL, cells with 100 nM OdDHL alone set to 100% inhibition, error ±10%): 92% |
| O=C(Cc1ccc2ccccc2c1)NC1CCOC1=O (stereo not drawn) [Compound E12] | – | – | 77 | 81 | 60 | – | – |
| CSc1cccc(CC(=O)N[C@H]2CCOC2=O)c1 [Compound E7] | – | – | – | – | – | 6.6 | – |
| O=C(Cc1cccc(Cl)c1)NC1CCOC1=O (stereo not drawn) [Compound C6] | displayed selectivity | 26 | – | – | – | 5.5 | – |
| O=C(Cc1ccc(I)cc1)N[C@H]1CCOC1=O [Compound C10] | – | – | 84 | 58 | −79 | – | Maximum RhlR inhibition (RhlR [3]; antagonism dose curves, highest concentrations tested): near complete RhlR inhibition |
| O=C(Cc1ccc(F)cc1)NC1CCOC1=O (stereo not drawn) [Compound C2] | displayed selectivity | 28 | – | – | – | 9 | – |
| O=C(Cc1ccccc1F)N[C@H]1CCOC1=O [Compound C4] | displayed selectivity | 24 | – | – | – | – | – |
| CCCC(=O)N[C@H]1CCOC1=O [BHL, N-butanoyl L-homoserine lactone, reference compound] | – | – | – | – | – | 11.1 | – |
| O=C(Cc1ccccc1)NC1CCOC1=O (stereo not drawn) [Compound C1] | displayed selectivity | 53 | – | – | – | 14.7 | – |
| O=C(Cc1ccccc1)N[C@@H]1CCOC1=O [Compound B4] | – | – | 66 | 15 | 37 | – | – |
| O=C(CCc1ccccc1)NC1CCOC1=O (stereo not drawn) [Compound E30] | – | – | – | – | – | 6.6 | – |
| O=C(Cc1ccccc1I)NC1CCOC1=O (stereo not drawn) [Compound C12] | displayed selectivity | 11 | – | – | – | – | – |
